Article PMC10702441 (2023)

How the values were obtained:
Experiment in all cases: ITC
[1] = system: Aai full-length NAD+-I (nadA) riboswitch, 100-mer (RNA, riboswitch) GGCUGCAACAUCCCCGUGGGUUGGACGGCGAAAGCCGUAGCGAAUCCACUGCAGCCUGUAUGGCUUUCAACAUCCCCGUCCGCGAAAGCGGACUGAAGGC
[2] = system: Aca domain I split construct (dom I; 28-mer + 22-mer) (RNA, riboswitch) GGGCGCAACAUCCCCGCCGGUUGGGCGC/GCGCAGUGAACCGGCUGCGUCC; conditions: 100 mM NaCl, 20 mM MgCl2, 0.10 M Na-HEPES pH 7.0, 10 °C, 1:1 model, apparent
[3] = system: Aca domain II split construct (dom II; 28-mer + 20-mer) (RNA, riboswitch) GCUUUCAACAUCCCCGUCCCGGGCGGAG/CUCCGCAGUGGACUGAAGGC; conditions: 100 mM NaCl, 20 mM MgCl2; 0.10 M Na-HEPES pH 7.0, 10 °C; ligand in syringe 0.40–0.63 mM
[4] = 100 mM NaCl, 20 mM MgCl2, 0.10 M Na-HEPES pH 7.0, 10 °C, 1:1 model, apparent

Structure (SMILES)	KD [1, 4]	KD [2]	binding [3]	KD ([1]; K+ (KCl replacing NaCl), KCl-containing ITC buffer, 10 °C, no significant change from Na+)	KD ([2]; error printed ± 7.1)
NC(=O)C1=CN([C@@H]2O[C@H](COP(=O)(O)OP(=O)(O)OC[C@H]3O[C@@H](n4cnc5c(N)ncnc54)[C@H](O)[C@@H]3O)[C@@H](O)[C@H]2O)C=CC1	59.7 ± 2.2 µM	55.5 ± 3.6 µM	no		
NC(=O)c1ccc[n+]([C@@H]2O[C@H](COP(=O)(O)OP(=O)(O)OC[C@H]3O[C@@H](n4cnc5c(N)ncnc54)[C@H](O)[C@@H]3O)[C@@H](O)[C@H]2O)c1	31.5 ± 1.5 µM	24.6 ± 8.4 µM	no	18.2 ± 2.1 µM	
NC(=O)c1ncn([C@@H]2O[C@H](COP(=O)(O)OP(=O)(O)OC[C@H]3O[C@@H](n4cnc5c(N)ncnc54)[C@H](O)[C@@H]3O)[C@@H](O)[C@H]2O)n1	30.2 ± 1.2 µM				21.9 ± 8.4 µM

Second part, the molecule after the results:

KD [1, 4]	KD [2]	binding [3]	KD ([1]; K+ (KCl replacing NaCl), KCl-containing ITC buffer, 10 °C, no significant change from Na+)	KD ([2]; error printed ± 7.1)	Structure (SMILES)
9.7 ± 1.1 µM	11.1 ± 0.6 µM				Nc1ncnc2c1ncn2[C@@H]1O[C@H](COP(=O)(O)OP(=O)(O)O)[C@@H](O)[C@H]1O
11.0 ± 3.5 µM					Nc1ncnc2c1ncn2[C@@H]1O[C@H](COP(=O)(O)OP(=O)(O)OP(=O)(O)O)[C@@H](O)[C@H]1O
